Measurements reported in ChEMBL document CHEMBL3881526, “Selective androgen receptor modulators and method of use thereof” (2007).
Calls of active or inactive are those of the source. The calls are words filed in the database; no cut-off is given here.

Experiments:
Rattus norvegicus [1] = experiment: Effect on lung weight in ORX Sprague-Dawley rat at 0.1 to 1 ug/day delivered at constant rate for 14 days via subcutaneous osmotic pumps; type: ADME, tissue-based; details: sc, 336 h
Rattus norvegicus [2] = experiment: Androgenic activity in ORX Sprague-Dawley rat assessed as restoration of seminal vesicles weight at 0.1 to 1 ug/day delivered at constant rate for 14 days via subcutaneous osmotic pumps; type: functional
Rattus norvegicus [3] = experiment: Effect on heart weight in ORX Sprague-Dawley rat at 0.1 to 1 ug/day delivered at constant rate for 14 days via subcutaneous osmotic pumps; type: ADME, tissue-based; details: in vivo, sc, 336 h
Rattus norvegicus [4] = experiment: Androgenic activity in ORX Sprague-Dawley rat assessed as restoration of prostate weight at 0.1 to 1 ug/day delivered at constant rate for 14 days via subcutaneous osmotic pumps; type: functional
[5] = Toxicity in ORX Sprague-Dawley rat assessed as induction of toxicity signs at 0.1 to 1 ug/day delivered at constant rate for 14 days via subcutaneous osmotic pumps by diagnostic hematology test; details: in vivo, sc, 336 h
[6] = Toxicity in ORX Sprague-Dawley rat assessed as induction of toxicity signs at 0.1 to 1 ug/day delivered at constant rate for 14 days via subcutaneous osmotic pumps by visual examination test; details: in vivo, sc, 336 h
Rattus norvegicus [7] = experiment: Anabolic activity in ORX Sprague-Dawley rat assessed as restoration of levator ani muscle weight at 0.1 to 1 ug/day delivered at constant rate for 14 days via subcutaneous osmotic pumps; type: functional
Rattus norvegicus [8] = experiment: Effect on spleen weight in ORX Sprague-Dawley rat at 0.1 to 1 ug/day delivered at constant rate for 14 days via subcutaneous osmotic pumps; type: ADME, tissue-based; details: in vivo, sc, 336 h
Rattus norvegicus [9] = experiment: Suppression of serum FSH in ORX Sprague-Dawley rat at =>0.3 mg/day delivered at constant rate for 14 days via subcutaneous osmotic pumps; type: functional

## C[C@](O)(COc1ccc(F)cc1)C(=O)Nc1ccc([N+](=O)[O-])c(C(F)(F)F)c1
Rattus norvegicus [1]
  Activity: Non-Toxic
Rattus norvegicus [2]
  Activity: <40%
Rattus norvegicus [3]
  Activity: Non-Toxic
Rattus norvegicus [4]
  Activity: <40%
[5]
  Activity: Non-Toxic
[6]
  Activity: Non-Toxic
Rattus norvegicus [7]
  Activity: Active
Rattus norvegicus [8]
  Activity: Non-Toxic
Rattus norvegicus [9]
  Activity: Active
